Reference: ChEMBL document CHEMBL1128916, “Phosphoramidate derivatives of d4T with improved anti-HIV efficacy retain full activity in thymidine kinase-deficient cells” (Bioorg Med Chem Lett, 1996)

Assays:
Details in all cases: Homo sapiens
CCRF-CEM [1] = assay: Compound was evaluated for the inhibition of HIV replication using HIV-1 infected CEM cells.; format: functional, cell-based
CCRF-CEM [2] = assay: Compound was evaluated for the inhibition of HIV replication using HIV-2 infected CEM cells.; format: functional, cell-based
CCRF-CEM [3] = assay: Compound was evaluated for the inhibition of HIV replication using HIV-2 infected CEM-TK- cells.; format: functional, cell-based
CCRF-CEM [4] = assay: Compound was evaluated for the cytotoxic concentration to inhibit HIV replication in CEM cells.; format: functional

Structure (SMILES) | EC50 (CCRF-CEM [1]) | EC50 (CCRF-CEM [2]) | EC50 (CCRF-CEM [3]) | CC50 (CCRF-CEM [4])
Cc1cn([C@H]2C[C@H](N=[N+]=[N-])[C@@H](CO)O2)c(=O)[nH]c1=O [ZIDOVUDINE] | 0.005 µM | 0.008 µM | > 100 µM | > 100 µM
Cc1cn(C2C=CC(COP(=O)(NC(C)C(=O)OCc3ccccc3)Oc3ccccc3)O2)c(=O)[nH]c1=O (stereo unspecified) | 0.022 µM | 0.039 µM | 0.06 µM | 52 µM
COC(=O)C(C)NP(=O)(OC[C@@H]1C=C[C@H](n2cc(C)c(=O)[nH]c2=O)O1)Oc1ccccc1 (stereo partly specified) | 0.085 µM | 0.102 µM | 0.075 µM | > 100 µM
Cc1cn([C@H]2C=C[C@@H](CO)O2)c(=O)[nH]c1=O [STAVUDINE] | 0.16 µM | 0.27 µM | 25 µM | > 100 µM
